Source: patent US20230295213A1, “CD73 INHIBITORS AND PHARMACEUTICAL USES THEREOF” (RISEN (SUZHOU) PHARMA TECH CO., LTD., priority 2018, published 2023)

Target: CD73 (Homo sapiens (Human), UniProt P21589)
Assay: CD73 enzyme inhibition assay (Malachite Green Phosphate Detection Kit)
Type: biochemical
Details: CD73 protein 0.5 μg/mL (2x), Tris-HCl pH 7.3, OD 620 nm; read-out: Potency (IC50 class), inhibitory activity in CD73 enzyme assay
Procedure: To evaluate the inhibitory effect of selected compounds on CD73, Malachite Green Phosphate Detection Kit (R&D, Cat #DY996) was used. Briefly, compounds were dissolved and diluted to the desired concentration using phosphate-free buffer (Tris-HCl, pH 7.3). 25 μL of the compound solution was added to an equal volume of CD73 protein solution (2× concentration, 0.5 μg/mL, Novoprotein, Cat #C446), followed by a 5-minute incubation at room temperature. 10 μL of Malachite Green Reagent A was added to each well, mixed thoroughly and incubated for 10 minutes at room temperature. 10 μL of Malachite Green Reagent B was then added to each well, mixed thoroughly and incubated for 20 minutes at room temperature. Finally, the optical density of each well was determined using a microplate reader set to 620 nm.

Sequence of CD73 (P21589 27-574): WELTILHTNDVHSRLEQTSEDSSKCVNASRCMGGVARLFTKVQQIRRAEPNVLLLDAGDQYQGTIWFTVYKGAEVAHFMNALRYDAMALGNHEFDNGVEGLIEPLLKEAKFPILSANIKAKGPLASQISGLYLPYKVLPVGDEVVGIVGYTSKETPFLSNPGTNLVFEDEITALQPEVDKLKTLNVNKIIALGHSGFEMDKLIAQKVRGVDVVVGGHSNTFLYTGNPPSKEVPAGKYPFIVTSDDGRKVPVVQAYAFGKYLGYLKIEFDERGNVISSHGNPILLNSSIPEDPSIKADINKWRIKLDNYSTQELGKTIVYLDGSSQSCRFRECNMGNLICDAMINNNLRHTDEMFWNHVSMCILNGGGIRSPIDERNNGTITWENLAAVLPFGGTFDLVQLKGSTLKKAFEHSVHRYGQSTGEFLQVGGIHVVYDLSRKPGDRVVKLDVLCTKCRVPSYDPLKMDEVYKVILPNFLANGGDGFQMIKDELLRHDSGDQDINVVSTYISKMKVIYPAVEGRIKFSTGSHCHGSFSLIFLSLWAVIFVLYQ

SMILES | IC50
CCCCCCCCCCCCN(CCCCCCCCCCCC)c1nc(Cl)nc2c1ncn2[C@@H]1O[C@H](COP(=O)(O)CP(=O)(O)O)C(O)[C@@H]1O (stereo partly shown) [Compound 19] | > 100 nM
CCCCCCCCCCCCOC(=O)Nc1nc(Cl)nc2c1ncn2[C@@H]1O[C@H](COP(=O)(O)CP(=O)(O)O)C(O)[C@@H]1O (stereo partly shown) [Compound 15] | < 10 nM
O=P(O)(O)CP(=O)(O)OC[C@H]1O[C@@H](n2cnc3c(Nc4ccc5ccccc5c4)nc(Cl)nc32)C(O)C1O (stereo partly shown) [Compound 12] | 10 to 100 nM
CC1(C)OC2C(O1)[C@@H](COP(=O)(O)CP(=O)(O)O)O[C@H]2n1cnc2c(NCc3ccccc3)nc(Cl)nc21 (stereo partly shown) [Compound 2] | 10 to 100 nM
O=P(O)(O)CP(=O)(O)OC[C@H]1O[C@@H](n2cnc3c(-n4c5ccccc5c5ccccc54)nc(Cl)nc32)C(O)C1O (stereo partly shown) [Compound 10] | 10 to 100 nM
O=P(O)(O)CP(=O)(O)OC[C@H]1O[C@@H](n2cnc3c(NC45CC6CC(CC(C6)C4)C5)nc(Cl)nc32)[C@@H](O)C1O (stereo partly shown) [Compound 22] | < 10 nM
CCCCC/C=C\C/C=C\CCCCCCCC(=O)Nc1nc(Cl)nc2c1ncn2[C@@H]1O[C@H](COP(=O)(O)CP(=O)(O)O)C(O)C1O (stereo partly shown) [Compound 11] | 10 to 100 nM
CCCCCOC(=O)Nc1nc(Cl)nc2c1ncn2[C@@H]1O[C@H](COP(=O)(O)CP(=O)(O)O)C(O)C1O (stereo partly shown) [Compound 8] | 10 to 100 nM
O=P(O)(O)CP(=O)(O)OC[C@H]1O[C@@H](n2cnc3c(NCc4ccccc4)nc(Cl)nc32)[C@@H](O)C1O (stereo partly shown) [Compound 1] | < 10 nM
O=P(O)(O)CP(=O)(O)OC[C@H]1O[C@@H](n2cnc3c(Nc4ccc5cc6ccccc6cc5c4)nc(Cl)nc32)C(O)C1O (stereo partly shown) [Compound 20] | 10 to 100 nM
O=P(O)(O)CP(=O)(O)OC[C@H]1O[C@@H](n2cnc3c(N4C5CCC4CC(O)C5)nc(Cl)nc32)[C@@H](O)C1O (stereo partly shown) [Compound 51] | < 10 nM
O=P(O)(O)CP(=O)(O)OC[C@H]1O[C@@H](n2cnc3c(NC4C5CC6CC(C5)CC4C6)nc(Cl)nc32)[C@@H](O)C1O (stereo partly shown) [Compound 17] | < 10 nM
O=P(O)(O)CP(=O)(O)OC[C@H]1O[C@@H](n2cnc3c(N4CCC5(CCCCC5)C4)nc(Cl)nc32)[C@@H](O)C1O (stereo partly shown) [Compound 31] | < 10 nM
O=P(O)(O)CP(=O)(O)OC[C@H]1O[C@@H](n2cnc3c(NCc4ccc5ccccc5c4)nc(Cl)nc32)[C@@H](O)C1O (stereo partly shown) [Compound 7] | < 10 nM
C[C@]12C[C@@H]3C[C@](C)(C1)C[C@@](Nc1nc(Cl)nc4c1ncn4[C@@H]1O[C@H](COP(=O)(O)CP(=O)(O)O)C(O)[C@@H]1O)(C3)C2 (stereo partly shown) [Compound 9] | < 10 nM
CC1(C)[C@@H]2CC[C@@]1(C)C(OC(=O)Cc1nc(Cl)nc3c1ncn3[C@@H]1O[C@H](COP(=O)(O)CP(=O)(O)O)C(O)C1O)C2 (stereo partly shown) [Compound 23] | 10 to 100 nM
O=P(O)(O)CP(=O)(O)OC[C@H]1O[C@@H](n2cnc3c(NCc4cccc5ccccc45)nc(Cl)nc32)[C@@H](O)C1O (stereo partly shown) [Compound 6] | < 10 nM
CCCCCCCCCCCCNC(=O)Nc1nc(Cl)nc2c1ncn2[C@@H]1O[C@H](COP(=O)(O)CP(=O)(O)O)C(O)C1O (stereo partly shown) [Compound 18] | 10 to 100 nM
O=C(CC12CC3CC(CC(C3)C1)C2)Nc1nc(Cl)nc2c1ncn2[C@@H]1O[C@H](COP(=O)(O)CP(=O)(O)O)C(O)[C@@H]1O (stereo partly shown) [Compound 16] | 10 to 100 nM

Same assay, conditions: qualitative statement

SMILES | inhibitory activity in the CD73 enzyme assay
O=P(O)(O)CP(=O)(O)CC[C@H]1O[C@@H](n2cnc3c(NCc4ccccc4)nc(Cl)nc32)[C@@H](O)C1O (stereo partly shown) [a-1] | showed inhibitory activity
C[C@]12C[C@@H]3C[C@](C)(C1)C[C@@](Nc1nc(Cl)nc4c1ncn4[C@@H]1O[C@H](CCP(=O)(O)CP(=O)(O)O)C(O)[C@@H]1O)(C3)C2 (stereo partly shown) [a-9] | showed inhibitory activity
O=P(O)(O)CP(=O)(O)CC[C@H]1O[C@@H](n2cnc3c(N4CCC5(CCCCC5)C4)nc(Cl)nc32)[C@@H](O)C1O (stereo partly shown) [a-31] | showed inhibitory activity

Target: Recombinant human 5′-nucleotidase (hCD73) (Homo sapiens (Human), UniProt P21589)
Sequence (P21589 27-574): as above
Assay: CD73 enzyme inhibition assay (hCD73, AMP substrate, PiColorLock Gold phosphate detection)
Type: biochemical
Details: hCD73 1 nM solution, AMP 60 μM solution, 37° C. 20 min, absorbance 635 nm
Procedure: Test compound solution preparation: Stock solution of a test compound was prepared in DMSO at 10 mM concentration. A series of preset 10-concentration solutions of a test compound were prepared by diluting the stock solution in 5-fold gradient dilution with DMSO.
Assay buffer (lx): 20 mm Tris, 25 mM NaCl, 1 mM MgCl2, pH 7.5, 0.005% Tween-20 (freshly prepared, and ready for use).
An aliquot of 0.25 μL of compound solution or DMSO (blank control) was added to each test well of a micro well plate. Recombinant human 5′-nucleotidase (hCD73) was diluted to 1 nM in assay buffer; and an aliquot of 25 μL hCD73 (1 nM) solution was added to the corresponding wells of the plate. The contents of the well were well-mixed, and the plate was covered with sealing film, centrifuged at 1000 rpm for 30 sec., followed by incubation at room temperature for 15 min. AMP, the substrate, was diluted to 60 μM concentration in the assay buffer. To each reaction well was added 25 μL of AMP solution. After mixing well, the plate was covered with sealing film, centrifuged at 1000 rpm for 30 sec., and incubated at 37° C. for 20 min. The absorbance signal (end point) was measured on SPARK plate reader at 635 nm (See PiColorLock™ Gold Phosphate Detection System (Abcam) test kit for reference).
The reaction wells containing CD73 enzyme, substrate AMP and DMSO (no compound) were used as positive control, and the reaction wells containing substrate AMP and DMSO but no CD73 enzyme were used as negative control. The percent (%) inhibition at each concentration of compound was calculated based on and relative to the signal in the High and Low control wells contained within each assay plate. The High control wells were considered as 0% inhibition, and the low control wells, which didn't contain any compound but rather DMSO (final concentration=0.5%), as 100% inhibition. IC50 values were obtained using GraphPad Prism software.

SMILES | IC50
O=P(O)(O)CP(=O)(O)OC[C@H]1O[C@@H](n2cnc3c(N4CC(c5ccccc5)C(c5ccccc5)C4)nc(Cl)nc32)[C@@H](O)C1O (stereo partly drawn) [d-36] | 1.86 nM
O=P(O)(O)CP(=O)(O)OC[C@H]1O[C@@H](n2cnc3c(N4CC5(CCCC5)c5ccccc54)nc(Cl)nc32)[C@@H](O)C1O (stereo partly drawn) [d-13] | 1.5 nM
O=P(O)(O)CP(=O)(O)OC[C@H]1O[C@@H](n2cnc3c(N4CC5(CCC5)c5ccccc54)nc(Cl)nc32)[C@@H](O)C1O (stereo partly drawn) [d-20] | 1.29 nM
O=P(O)(O)CP(=O)(O)OC[C@H]1O[C@@H](n2cnc3c(N4CC5(Cc6ccccc6C5)C4)nc(Cl)nc32)[C@@H](O)C1O (stereo partly drawn) [d-9] | 0.73 nM
O=P(O)(O)CP(=O)(O)OC[C@H]1O[C@@H](n2cnc3c(N4CC5(CCc6ccccc65)C4)nc(Cl)nc32)[C@@H](O)C1O (stereo partly drawn) [d-1] | 0.47 nM
O=P(O)(O)CP(=O)(O)OC[C@H]1O[C@@H](n2cnc3c(N4CC(c5ccccc5)c5ccccc54)nc(Cl)nc32)[C@@H](O)C1O (stereo partly drawn) [Compound d-38] | 1.92 nM
O=P(O)(O)CP(=O)(O)OC[C@H]1O[C@@H](n2cnc3c(N4CC(c5ccccc5)(c5ccccc5)C4)nc(Cl)nc32)[C@@H](O)C1O (stereo partly drawn) [d-35] | 1.39 nM
O=P(O)(O)CP(=O)(O)OC[C@H]1O[C@@H](n2cnc3c(N4CCC5(CCCCC5)C4)nc(Cl)nc32)[C@@H](O)C1O (stereo partly shown) [Compound b, reference compound] | 1.08 nM
O=P(O)(O)CP(=O)(O)OC[C@H]1O[C@@H](n2cnc3c(N4CC5(CCCc6ccccc65)C4)nc(Cl)nc32)[C@@H](O)C1O (stereo partly drawn) [d-12] | 0.4 nM
O=P(O)(O)CP(=O)(O)OC[C@H]1O[C@@H](n2cnc3c(N4CCC5(CCc6ccccc65)C4)nc(Cl)nc32)[C@@H](O)C1O (stereo partly drawn) [d-8] | 0.75 nM
O=P(O)(O)CP(=O)(O)OC[C@H]1O[C@@H](n2cnc3c(N4CC5(CCCCC5)c5ccccc54)nc(Cl)nc32)[C@@H](O)C1O (stereo partly drawn) [d-7] | 1.8 nM

System: not listed separately
Assay: Pharmacokinetic evaluation in ICR mice, intravenous
Type: in vivo
Details: mouse; ICR male mice, 1.0 mg/kg intravenous, plasma
Procedure: A test compound (1.0 mg/kg) was administered to fasted ICR male mice via intravenous injection, and blood samples were collected at time points of 0.08, 0.25, 0.5, 1, 2, 4, 6, 8 and 24 h after the administration. Plasma sample was separated by centrifugation (8000 rpm) and stored at −80° C. until the sample was analyzed. Concentrations of the test compound in the plasma were determined by HPLC-MS/MS: the plasma was dispensed into appropriate tubes containing internal standard and methanol or acetonitrile. The tubes were mixed vigorously for 3 minutes to achieve deproteinization and then centrifuged at 8000 rpm for 5 minutes. The supernatant was transferred to an autosampler vial, injected into the chromatographic system, and quantified on MS/MS detector. Pharmacokinetic parameters including AUC0-t, Cmax, Tmax, t1/2, MRT, Cl and Vd were calculated using WinNonlin 6.3 software. Table 3 summarizes key PK parameters for test compounds (AUC(0-t): the area under the curve from time 0 to time t; AUC(0-∞): the area under the curve from time 0 to infinity; t1/2: Half-life; CL: clearance; C0: the concentration of drug in blood if the drug molecules enter the circulation and are distributed immediately (i.e., at time 0)).

SMILES | AUC(0-inf) | AUC(0-t) | Cmax | half-life
O=P(O)(O)CP(=O)(O)OC[C@H]1O[C@@H](n2cnc3c(N4CC5(CCCCCC5)c5ccccc54)nc(Cl)nc32)[C@@H](O)C1O (stereo partly drawn) [d-22] | 167000 ng·h/mL | 74100 ng·h/mL | 8030 ng/mL | 28.9 h
O=P(O)(O)CP(=O)(O)OC[C@H]1O[C@@H](n2cnc3c(N4CC5(CCCC5)c5ccccc54)nc(Cl)nc32)[C@@H](O)C1O (stereo partly drawn) [d-13] | 298000 ng·h/mL | 108000 ng·h/mL | 11600 ng/mL | 39.5 h
O=P(O)(O)CP(=O)(O)OC[C@H]1O[C@@H](n2cnc3c(N4CC5(CCC5)c5ccccc54)nc(Cl)nc32)[C@@H](O)C1O (stereo partly drawn) [d-20] | 121000 ng·h/mL | 94000 ng·h/mL | 15600 ng/mL | 12.2 h
C[C@H](Nc1cc(Cl)nc2c1cnn2[C@@H]1O[C@H](COP(=O)(O)CP(=O)(O)O)[C@@H](O)[C@H]1O)c1ccccc1F [Compound a, AB680, reference compound] | 24200 ng·h/mL | 24000 ng·h/mL | 11700 ng/mL | 3.41 h
O=P(O)(O)CP(=O)(O)OC[C@H]1O[C@@H](n2cnc3c(N4CC5(Cc6ccccc6C5)C4)nc(Cl)nc32)[C@@H](O)C1O (stereo partly drawn) [d-9] | 22500 ng·h/mL | 19700 ng·h/mL | 10700 ng/mL | 2.95 h
O=P(O)(O)CP(=O)(O)OC[C@H]1O[C@@H](n2cnc3c(N4CC5(CCc6ccccc65)C4)nc(Cl)nc32)[C@@H](O)C1O (stereo partly drawn) [d-1] | 6360 ng·h/mL | 6360 ng·h/mL | 8850 ng/mL | 0.556 h
O=P(O)(O)CP(=O)(O)OC[C@H]1O[C@@H](n2cnc3c(N4CCC5(CCCc6ccccc65)C4)nc(Cl)nc32)[C@@H](O)C1O (stereo partly drawn) [d-6] | 6680 ng·h/mL | 6670 ng·h/mL | 7840 ng/mL | 0.841 h
O=P(O)(O)CP(=O)(O)OC[C@H]1O[C@@H](n2cnc3c(N4CCC5(CCCCC5)C4)nc(Cl)nc32)[C@@H](O)C1O (stereo partly shown) [Compound b, reference compound] | 9120 ng·h/mL | 9110 ng·h/mL | 15200 ng/mL | 0.85 h
O=P(O)(O)CP(=O)(O)OC[C@H]1O[C@@H](n2cnc3c(N4CC5(CCCc6ccccc65)C4)nc(Cl)nc32)[C@@H](O)C1O (stereo partly drawn) [d-12] | 9900 ng·h/mL | 9860 ng·h/mL | 8560 ng/mL | 0.949 h
O=P(O)(O)CP(=O)(O)OC[C@H]1O[C@@H](n2cnc3c(N4CC5(CCCCC5)c5ccccc54)nc(Cl)nc32)[C@@H](O)C1O (stereo partly drawn) [d-7] | 197000 ng·h/mL | 107000 ng·h/mL | 12500 ng/mL | 21.3 h
